From paper PMC5129993, “Everolimus induces Met inactivation by disrupting the FKBP12/Met complex” (Oncotarget, 2016)

What was measured:
[1] = system: phospho-p70S6K; assay: Western blot analysis of p70S6K phosphorylation in human cancer cell lines; type: cell-based; conditions: 24 hours; for phospho-p70S6K: 786-O and MDA-MB-231 cells; for phosphorylation of p70S6K: 786-O EveR and HCT116 cells, 1 μM (siRNA 50 nM)
Method: (§1) Total protein extracts obtained from cell cultures or tumor specimens were resolved by 4-15% SDS-PAGE and probed with anti-human, polyclonal pMet Y1349, polyclonal Met, monoclonal pp70S6K T412 and p70S6K (Merck-Millipore Darmstadt, Germany), monoclonal actin (Sigma-Aldrich, Milan, Italy), monoclonal FKBP12, polyclonal mTOR, Raptor, and Rictor. Co-immunoprecipitation analyses were performed with anti-Met; membranes were blotted with anti-FKBP12. The total lysate from 786-O, 786-O EveR and HCT116 cells served as positive control. Immunoreactive proteins were visualized by enhanced chemiluminescence (Pierce, Rockford, IL, USA). Densitometry was performed with Image J software (NIH, Bethesda, MD, USA).

[2] = system: phospho-Met; assay: Western blot analysis of Met phosphorylation in human cancer cell lines; type: cell-based; conditions: 24 hours; for Met phosphorylation: 0.5 μM; for phosphorylation of Met: 786-O EveR and HCT116 cells, 1 μM (siRNA 50 nM)
Method: as §1

[3] = system: everolimus-resistant HCT116 cells; assay: Orthotopic murine colorectal cancer model (HCT116 in cecum); type: in vivo, Balb/C nude mice; conditions: orthotopic HCT116, four weeks after tumor implantation
Method: The cecum was then placed
Seven days after implantation, […]
p/6 x larger diameter x (smaller diameter)2. […]
diameter was assessed with ultrasonography (VEVO,
Committee. Primary tumors in the cecum were excised
The final tumor was measured with a caliper surgical site was isolated in a sterile fashion.
J Am Chem Soc. 2003; 125: 8827-8837.
Uncoupling signal transducers from oncogenic MET 6.
2. […] 2000; 25: 217-222.
Unbinding pathways from the glucocorticoid receptor shed 7. Michnick SW, Rosen MK, Wandless TJ, Karplus M, […]
Solution structure of FKBP, a rotamase a naturally occurring, clinically relevant mutant receptor. J enzyme and receptor for FK506 and rapamycin. Science.
3. […] Mustafi SM, LeMaster DM, Hernández G. Differential […]
cytoreductive antitumor activity in vivo.
HADDOCK2.0 on the CAPRI targets. Proteins.
726-733. JR, Soisson SM, Lumb KJ. Structural basis for selective

[4] = system: everolimus-resistant HCT116 cells; assay: Subcutaneous murine colorectal cancer model (HCT116 xenograft); conditions: for Median survival: subcutaneous HCT116 xenograft, 10 mice/group
Source text: We subcutaneously xenografted everolimus-resistant HCT116 cells into 50 four- to six-week-old female BALB/c athymic nu+/nu+ (nude) mice (Charles River Laboratories, Milan, Italy). Forty animals were used to carry out the subcutaneous colorectal cancer model experiment; when tumors reached a mean volume of 1 cm^3, 10 animals were euthanized, tumors were divided into 2-mm-sized pieces and microsurgically implanted in the cecum of 40 Balb/C nude mice for the orthotopic experiment. See Supplementary Methods for further details about the surgical procedure and the treatment schedule. […]

[5] = system: T47D cells with wt Met; assay: Cell density assay (MTT), Met-transduced T47D; type: cell-based, human
Method: (§2) The percentage of cell density was determined using the 3-(4,5-dimethylthiazol-2-yl)-2,5-diphenyltetrazolium bromide (MTT) assay according to the manufacturer's instructions (Sigma-Aldrich, Milan, Italy). […]
(§3) (iii) an active conformation. The resulting selected Met [Follenzi A, Nat Genet. 2000]. […]
(§4) We used the pRRL.sin.PPT.hCMV.GFP.
(§5) Cα] at the 80 loop level (frame 13). To generate the Met/pre vector as control. […]

[6] = system: T47D cells with Met Y1235D mutant; assay: Cell density assay (MTT), Met-transduced T47D; type: cell-based, human
Method: as §2, §3, §4, §5

[7] = system: T47D cells with Met M1268T mutant; assay: Cell density assay (MTT), Met-transduced T47D; type: cell-based, human
Method: as §2, §3, §4, §5

[8] = target: T1, FKBP12/Met complex (Homo sapiens, UniProt P62942); assay: Co-immunoprecipitation of FKBP12 with anti-Met antibody; type: cell-based; conditions: 0.5 μM, 24 hours
T1 construct: immunoprecipitated total cell lysates from everolimus-treated and -untreated 786-O cells; endogenous in cells; host or cells: 786-O (also 786-O EveR and HCT116)
T1 sequence (P62942 2-108 limits assumed, one chain of several): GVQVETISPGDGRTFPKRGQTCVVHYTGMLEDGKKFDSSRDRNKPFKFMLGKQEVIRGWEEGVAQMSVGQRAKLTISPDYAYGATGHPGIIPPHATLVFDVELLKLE
Method: as §1

[9] = system: MDA-MB-361 cells; assay: Cell density assay (MTT); type: cell-based; conditions: Homo sapiens, MDA-MB-361, 72 hours, read-out: concentration causing 50% reduction of cell density
Method: (§6) The percentage of cell density was determined using the 3-(4,5-dimethylthiazol-2-yl)-2,5-diphenyltetrazolium bromide (MTT) assay according to the manufacturer's instructions (Sigma-Aldrich, Milan, Italy).

[10] = system: MDA-MB-231 cells; assay: Cell density assay (MTT); type: cell-based; conditions: Homo sapiens, MDA-MB-231, 72 hours, read-out: concentration causing 50% reduction of cell density
Method: as §6

[11] = system: PC-9 cells; assay: Cell density assay (MTT); type: cell-based; conditions: Homo sapiens, PC-9, 72 hours, read-out: concentration causing 50% reduction of cell density
Method: as §6

[12] = system: 786-O cells; assay: Cell density assay (MTT); type: cell-based; conditions: Homo sapiens, 786-0, 72 hours, read-out: concentration causing 50% reduction of cell density
Method: as §6

[13] = system: NCI-H1975 cells; assay: Cell density assay (MTT); type: cell-based; conditions: Homo sapiens, NCI-H1975, 72 hours, read-out: concentration causing 50% reduction of cell density
Method: as §6

[14] = system: ACHN cells; assay: Cell density assay (MTT); type: cell-based; conditions: Homo sapiens, 72 hours, read-out: concentration causing 50% reduction of cell density
Method: as §6

[15] = system: HCT116 cells; assay: Cell density assay (MTT); type: cell-based; conditions: Homo sapiens, HCT-116; HCT116, data not shown; read-out: concentration causing 50% reduction of cell density
Method: as §6

[16] = system: 786-O EveR (everolimus-resistant) cells; assay: Cell density assay (MTT); type: cell-based; conditions: Homo sapiens, 786-0, data not shown, read-out: concentration causing 50% reduction of cell density
Method: as §2

[17] = target: T2, Met Y1230C (Homo sapiens, UniProt P08581, Y1230C); assay: In vitro Met kinase inhibition assay (ProQinase, radiometric 33PanQinase); type: biochemical
T2 construct: purchased ProQinase GmbH (screening service)
Method: (§7) In vitro Met kinase inhibition assay equilibrated using NAMD2.8 [Phillips JC, J Comput Chem.
(§8) The Met kinase inhibition by everolimus was analyzed 2005], and the final MD simulation was conducted applying […]
(§9) ProQinase (ProQinase GmbH, Freiburg, Germany). Briefly, J Med Chem. 2013].
(§10) -10 - trajectories. The complex was aligned on the Cα atoms of different concentrations (standard range: 3x10M–1x10 Met, while the backbone atoms Root-mean-square deviation 5M; semilog dilutions) against human recombinant wt […]
(§11) All assays were Å. Finally, the representative structure of the most populated performed at the corresponding apparent ATP Km of each cluster was choosen as the final Met/FKBP12 complex. […]

[18] = target: T3, Met D1228N (Homo sapiens, UniProt P08581, D1228N); assay: as above; type: biochemical
T3 construct: purchased ProQinase GmbH (screening service)
Method: as §7, §8, §9, §10, §11

[19] = target: T4, Met Wild-type (Homo sapiens, UniProt P08581); assay: as above; type: biochemical; conditions: Met TK Wild-type; 0.3 nM to 10 μM, singlicate; apparent ATP Km
T4 construct: purchased ProQinase GmbH (screening service)
Method: as §7, §8, §9, §10, §11

[20] = target: T5, Met F1200I (Homo sapiens, UniProt P08581, F1200I); assay: as above; type: biochemical
T5 construct: purchased ProQinase GmbH (screening service)
Method: as §7, §8, §9
(§12) -10 - trajectories. The complex was aligned on the Cα atoms of different concentrations (standard range: 3x10M–1x10 Met, while the backbone atoms Root-mean-square deviation 5M; semilog dilutions) against human recombinant wt
(§13) Met and nine Met mutant protein kinases, and IC values (RMSD) of FKBP12 was measured and used to cluster the 50 trajectories. The cluster analysis was performed using ptraj […]
as §11

[21] = target: T6, Met M1250T (Homo sapiens, UniProt P08581, M1250T); assay: as above; type: biochemical
T6 construct: purchased ProQinase GmbH (screening service)
Method: as §7, §8, §9, §12, §13, §11

[22] = target: T7, Met D1228H (Homo sapiens, UniProt P08581, D1228H); assay: as above; type: biochemical
T7 construct: purchased ProQinase GmbH (screening service)
T7 sequence (P08581 25-1390 D1228H): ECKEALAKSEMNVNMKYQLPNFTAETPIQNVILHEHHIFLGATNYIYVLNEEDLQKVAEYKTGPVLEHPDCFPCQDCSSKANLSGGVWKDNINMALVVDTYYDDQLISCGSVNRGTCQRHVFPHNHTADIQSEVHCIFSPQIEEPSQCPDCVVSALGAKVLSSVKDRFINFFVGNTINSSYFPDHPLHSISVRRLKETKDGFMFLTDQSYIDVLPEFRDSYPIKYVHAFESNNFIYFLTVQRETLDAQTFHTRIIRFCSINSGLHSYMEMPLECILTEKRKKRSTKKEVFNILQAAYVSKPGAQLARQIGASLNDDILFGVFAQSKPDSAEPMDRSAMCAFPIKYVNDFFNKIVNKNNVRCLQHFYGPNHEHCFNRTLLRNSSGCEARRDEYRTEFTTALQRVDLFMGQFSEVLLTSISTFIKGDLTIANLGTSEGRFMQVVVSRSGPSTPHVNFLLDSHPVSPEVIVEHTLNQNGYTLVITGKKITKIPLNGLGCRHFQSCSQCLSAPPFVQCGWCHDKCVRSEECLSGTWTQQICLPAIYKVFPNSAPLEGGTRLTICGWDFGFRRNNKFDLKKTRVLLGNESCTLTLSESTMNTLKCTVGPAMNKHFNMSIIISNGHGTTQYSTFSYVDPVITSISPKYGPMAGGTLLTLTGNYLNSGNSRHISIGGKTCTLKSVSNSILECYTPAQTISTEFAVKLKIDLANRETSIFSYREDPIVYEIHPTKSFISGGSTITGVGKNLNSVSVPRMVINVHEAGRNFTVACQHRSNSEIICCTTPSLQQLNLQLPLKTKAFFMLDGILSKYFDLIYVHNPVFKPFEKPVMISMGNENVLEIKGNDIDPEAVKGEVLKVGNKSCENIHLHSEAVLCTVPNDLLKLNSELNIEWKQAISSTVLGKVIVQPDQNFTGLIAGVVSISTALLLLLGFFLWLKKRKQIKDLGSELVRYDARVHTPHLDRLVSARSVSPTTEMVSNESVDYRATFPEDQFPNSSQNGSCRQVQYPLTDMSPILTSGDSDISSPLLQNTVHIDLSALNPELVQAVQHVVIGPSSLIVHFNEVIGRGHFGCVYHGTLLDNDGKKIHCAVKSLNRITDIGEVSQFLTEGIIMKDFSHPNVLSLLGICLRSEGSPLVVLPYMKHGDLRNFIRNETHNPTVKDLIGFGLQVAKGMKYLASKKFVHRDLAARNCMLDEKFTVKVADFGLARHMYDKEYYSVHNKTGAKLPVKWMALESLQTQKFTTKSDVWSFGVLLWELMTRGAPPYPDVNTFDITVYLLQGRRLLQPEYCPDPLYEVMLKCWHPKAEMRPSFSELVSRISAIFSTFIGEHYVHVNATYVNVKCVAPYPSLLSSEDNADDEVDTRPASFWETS
Method: as §7, §8, §9, §12, §13, §11

[23] = target: T8, Met Y1230A (Homo sapiens, UniProt P08581, Y1230A); assay: as above; type: biochemical
T8 construct: purchased ProQinase GmbH (screening service)
T8 sequence (P08581 25-1390 Y1230A): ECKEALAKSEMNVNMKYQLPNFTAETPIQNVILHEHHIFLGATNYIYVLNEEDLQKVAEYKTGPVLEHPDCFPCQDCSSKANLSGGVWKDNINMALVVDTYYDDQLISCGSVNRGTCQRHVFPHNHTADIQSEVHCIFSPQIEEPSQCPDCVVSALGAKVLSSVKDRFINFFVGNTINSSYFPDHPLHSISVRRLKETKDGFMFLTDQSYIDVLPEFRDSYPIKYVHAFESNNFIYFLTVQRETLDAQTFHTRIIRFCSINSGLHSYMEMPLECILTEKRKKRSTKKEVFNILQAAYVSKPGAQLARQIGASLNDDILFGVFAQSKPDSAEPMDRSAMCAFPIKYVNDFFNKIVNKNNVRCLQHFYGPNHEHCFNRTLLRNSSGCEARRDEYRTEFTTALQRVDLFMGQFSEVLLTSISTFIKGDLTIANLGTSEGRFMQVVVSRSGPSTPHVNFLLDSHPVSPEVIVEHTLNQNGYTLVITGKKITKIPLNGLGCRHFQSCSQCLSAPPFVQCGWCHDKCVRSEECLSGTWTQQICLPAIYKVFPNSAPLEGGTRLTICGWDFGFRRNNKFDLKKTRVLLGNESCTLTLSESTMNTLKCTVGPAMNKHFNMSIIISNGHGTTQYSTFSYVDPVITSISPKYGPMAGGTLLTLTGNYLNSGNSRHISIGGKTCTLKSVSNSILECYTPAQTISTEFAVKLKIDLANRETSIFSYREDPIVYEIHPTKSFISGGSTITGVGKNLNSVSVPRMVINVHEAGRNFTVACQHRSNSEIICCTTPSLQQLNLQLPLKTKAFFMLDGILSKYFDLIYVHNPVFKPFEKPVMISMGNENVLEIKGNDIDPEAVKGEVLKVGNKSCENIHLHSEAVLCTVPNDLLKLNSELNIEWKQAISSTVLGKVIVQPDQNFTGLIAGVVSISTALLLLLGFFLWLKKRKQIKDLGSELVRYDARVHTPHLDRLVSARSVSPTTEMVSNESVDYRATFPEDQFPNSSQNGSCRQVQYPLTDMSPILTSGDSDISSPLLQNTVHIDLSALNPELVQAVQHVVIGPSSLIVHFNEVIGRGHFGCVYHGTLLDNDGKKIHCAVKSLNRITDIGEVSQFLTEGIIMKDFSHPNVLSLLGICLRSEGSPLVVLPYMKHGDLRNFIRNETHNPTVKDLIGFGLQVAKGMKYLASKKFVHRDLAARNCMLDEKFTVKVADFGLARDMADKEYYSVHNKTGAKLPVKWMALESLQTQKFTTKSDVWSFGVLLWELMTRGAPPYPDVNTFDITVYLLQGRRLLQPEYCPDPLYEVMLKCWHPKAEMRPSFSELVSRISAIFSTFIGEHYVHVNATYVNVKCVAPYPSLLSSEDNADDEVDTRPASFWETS
Method: as §7, §8, §9, §12, §13, §11

[24] = target: T9, Met Y1230H (Homo sapiens, UniProt P08581, Y1230H); assay: as above; type: biochemical
T9 construct: purchased ProQinase GmbH (screening service)
T9 sequence (P08581 25-1390 Y1230H): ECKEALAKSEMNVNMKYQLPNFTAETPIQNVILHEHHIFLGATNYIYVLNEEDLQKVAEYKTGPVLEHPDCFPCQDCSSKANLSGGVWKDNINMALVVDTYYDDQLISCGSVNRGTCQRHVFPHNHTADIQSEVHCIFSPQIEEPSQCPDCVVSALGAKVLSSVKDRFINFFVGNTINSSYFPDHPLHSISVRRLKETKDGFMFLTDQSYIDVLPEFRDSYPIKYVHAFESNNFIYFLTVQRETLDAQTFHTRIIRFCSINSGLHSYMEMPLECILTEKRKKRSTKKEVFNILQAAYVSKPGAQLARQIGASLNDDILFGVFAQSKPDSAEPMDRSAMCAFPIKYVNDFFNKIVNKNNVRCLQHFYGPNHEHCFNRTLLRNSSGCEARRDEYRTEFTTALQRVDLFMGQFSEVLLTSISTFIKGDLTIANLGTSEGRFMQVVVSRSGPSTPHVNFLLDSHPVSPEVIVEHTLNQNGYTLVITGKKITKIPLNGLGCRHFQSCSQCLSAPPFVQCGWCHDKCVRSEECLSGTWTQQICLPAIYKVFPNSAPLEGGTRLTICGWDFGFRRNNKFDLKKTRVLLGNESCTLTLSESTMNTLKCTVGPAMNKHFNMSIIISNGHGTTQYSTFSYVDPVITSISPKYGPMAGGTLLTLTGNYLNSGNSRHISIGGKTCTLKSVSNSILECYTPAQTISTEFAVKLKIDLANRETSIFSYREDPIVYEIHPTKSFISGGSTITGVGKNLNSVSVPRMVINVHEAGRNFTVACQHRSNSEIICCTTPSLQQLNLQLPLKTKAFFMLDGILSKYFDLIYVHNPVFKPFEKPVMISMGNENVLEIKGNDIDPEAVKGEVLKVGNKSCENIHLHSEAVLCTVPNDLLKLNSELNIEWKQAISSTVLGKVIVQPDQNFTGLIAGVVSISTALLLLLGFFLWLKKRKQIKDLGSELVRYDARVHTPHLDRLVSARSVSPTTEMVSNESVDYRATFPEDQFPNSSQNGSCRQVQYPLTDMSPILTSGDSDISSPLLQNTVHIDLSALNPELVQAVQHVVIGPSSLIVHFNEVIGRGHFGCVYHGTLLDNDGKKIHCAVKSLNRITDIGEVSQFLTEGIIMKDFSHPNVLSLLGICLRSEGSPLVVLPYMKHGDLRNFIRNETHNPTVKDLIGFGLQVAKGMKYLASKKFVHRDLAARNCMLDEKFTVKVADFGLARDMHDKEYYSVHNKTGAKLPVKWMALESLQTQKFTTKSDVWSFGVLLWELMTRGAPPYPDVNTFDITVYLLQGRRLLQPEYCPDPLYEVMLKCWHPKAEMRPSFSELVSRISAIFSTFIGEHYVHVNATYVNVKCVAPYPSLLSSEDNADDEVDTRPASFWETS
Method: as §7, §8, §9, §12, §13, §11

[25] = target: T10, Met Y1230D (Homo sapiens, UniProt P08581, Y1230D); assay: as above; type: biochemical
T10 construct: purchased ProQinase GmbH (screening service)
Method: as §7, §8, §9, §12, §13, §11

[26] = day 42, 6 weeks after cell injection, everolimus 5 mg/kg per os, PHA665752 20 mg/kg i.v., five times a week for 2 weeks

COc1cccc2cc(-c3nc([C@H]4CC[C@H](C(=O)O)CC4)n4ncnc(N)c34)[nH]c12 [OSI-027]
phospho-p70S6K ([1]; 0.5 μM): reduced phospho-p70S6K | Met phosphorylation ([2]; 786-O and MDA-MB-231 cells): neither PKI-587 nor OSI-027 inhibited Met phosphorylation

Cc1[nH]c(/C=C2\C(=O)Nc3ccc(S(=O)(=O)Cc4c(Cl)cccc4Cl)cc32)c(C)c1C(=O)N1CCC[C@@H]1CN1CCCC1 [PHA665752]
phosphorylation of p70S6K [1]: reduced the phosphorylation of Met and p70S6K | tumor volume [3]: greatly reduced | tumor weight [3]: greatly reduced | phosphorylation of Met [2]: reduced the phosphorylation of Met and p70S6K | tumor growth inhibition [4, 26]: 85% | tumor growth inhibition ([4]; end of the experiment, same regimen): 30% | Median survival [4]: 57 days | sensitivity to everolimus (cell density) ([5]; T47D wt Met, PHA665752 1 μM + everolimus 1 μM, 72 hours, P <0.01): significantly restored sensitivity to everolimus | sensitivity to everolimus (cell density) ([6]; T47D Met Y1235D, PHA665752 1 μM + everolimus 1 μM, 72 hours, P <0.01): significantly restored sensitivity to everolimus | sensitivity to everolimus (cell density) ([7]; T47D Met M1268T, PHA665752 1 μM + everolimus 1 μM, 72 hours, P <0.01): significantly restored sensitivity to everolimus

CN(C)C1CCN(C(=O)c2ccc(NC(=O)Nc3ccc(-c4nc(N5CCOCC5)nc(N5CCOCC5)n4)cc3)cc2)CC1 [PKI-587]
phospho-p70S6K ([1]; 0.5 μM): reduced phospho-p70S6K | Met phosphorylation ([2]; 786-O and MDA-MB-231 cells): neither PKI-587 nor OSI-027 inhibited Met phosphorylation

CO[C@H]1C[C@@H]2CC[C@@H](C)[C@@](O)(O2)C(=O)C(=O)N2CCCC[C@H]2C(=O)O[C@H]([C@H](C)C[C@@H]2CC[C@@H](OCCO)[C@H](OC)C2)CC(=O)[C@H](C)/C=C(\C)[C@@H](O)[C@@H](OC)C(=O)[C@H](C)C[C@H](C)/C=C/C=C/C=C/1C [everolimus]
phosphorylation of p70S6K [1]: did not affect the phosphorylation of Met or p70S6K | p70S6K phosphorylation ([1]; renal, breast and lung everolimus-sensitive cell lines, 0.5 μM): decreased p70S6K phosphorylation | amount of FKBP12 co-immunoprecipitated with Met ([8]; 786-O cells): lower | amount of FKBP12 co-immunoprecipitated with Met ([8]; everolimus-resistant 786-O EveR and HCT116 cells): not reduced | IC50 [9]: ≤ 0.5 µM | IC50 [10]: ≤ 0.5 µM | IC50 [11]: ≤ 0.5 µM | IC50 [12]: ≤ 0.5 µM | IC50 [13]: ≤ 0.5 µM | IC50 [14]: ≤ 0.5 µM | IC50 [15]: ≥ 5 µM | IC50 [16]: ≥ 5 µM | IC50 [17]: > 10 µM | IC50 [18]: > 10 µM | IC50 [19]: > 10 µM | IC50 [20]: > 10 µM | IC50 [21]: > 10 µM | IC50 [22]: > 10 µM | IC50 [23]: > 10 µM | IC50 [24]: > 10 µM | IC50 [25]: > 10 µM | tumor volume [3]: large tumors in the cecum and peritoneum | phosphorylation of Met [2]: did not affect the phosphorylation of Met or p70S6K | Met phosphorylation ([2]; renal, breast and lung everolimus-sensitive cell lines): inhibition of Met phosphorylation | tumor growth inhibition [4, 26]: 35% | Median survival [4]: 37.5 days | IC50 ([5]; Homo sapiens, T47D with wt Met, read-out: drug concentration causing 50% reduction of cell density): > 0.5 µM | IC50 ([6]; Homo sapiens, T47D with Met Y1235D, read-out: drug concentration causing 50% reduction of cell density): > 0.5 µM | IC50 ([7]; Homo sapiens, T47D with Met M1268T, read-out: drug concentration causing 50% reduction of cell density): > 0.5 µM
